Reference: publication PMC9946977, “Identification of linderalactone as a natural inhibitor of SHP2 to ameliorate CCl4-induced liver fibrosis” (Frontiers in Pharmacology, 2023)

Legend:
LX-2 cells = assay: LX-2 cells: fibrogenic gene expression and Smad2/3 phosphorylation; type: cell-based, human
Description: The LX-2 cell line was purchased from the Cell Bank Type Culture Collection of the Chinese Academy of Sciences (Shanghai, China). Cells were cultured in DMEM supplemented with 10% [v/v] foetal bovine serum, 2 mM glutamine, 100 U/ml penicillin, and […] streptomycin. SHP-2 and control siRNAs were obtained from Suzhou GenePharma Co., Ltd. (sense 5'-3': GAGAGAGGAAAGAGUAAAUTT; antisense 5'-3': AUUUACUCUUUCCUCUCUCTT). Transfection was performed according to the manufacturer’s instructions. Subsequent real-time PCR and western blotting were performed to analyse transfection efficiency.
Total RNA was extracted from liver tissues and LX-2 cells using the TRIzol reagent. cDNA was synthesised using a PrimeScript RT Master Mix kit. […] Relative expression of target genes was normalised to actin, analysed by the delta-delta-CT method and given as a ratio compared with the vehicle control. […]
Liver proteins were isolated by using a lysis buffer containing 50 mM Tris-HCl (pH7.5), 150 mM NaCl, 1 mM EDTA, 20 mM NaF, 0.5% NP-40, 10% glycerol, 1 mM phenylmethylsulphonyl fluoride, 10 μg/mL aprotinin, 10 μg/mL leupeptin, and 10 μg/mL pepstatin. The supernatants were collected after centrifugation at 3,000 g for 10 min at 4°C, and the protein concentration of each sample was determined and normalised to the same protein concentration. […]

[1] = tested on: HSCs activation (α-SMA, vimentin, desmin); assay: CCl4 mouse model: HSC activation markers in liver; type: in vivo, C57BL/6 mice; settings: CCl4 mice
Description: C57BL/6 mice (20 ± 2 g) were obtained from Hangzhou Medical College Experimental Animal Center (Hangzhou, China). The animals were maintained under controlled temperature (22°C ± 1°C), humidity (50%), and light (12 h light/12 h dark). The animals were fed a standard laboratory diet and provided with free access to tap water. All animals received humane care according to institutional animal care guidelines approved by the Experimental Animal Ethical Committee of Hangzhou Medical College. Forty mice were randomly divided into six groups: (1) vehicle control (n = 7); (2) CCl4 model (n = 7); (3) CCl4 + LIN (20 mg/kg) (n = 7); (4) CCl4 + LIN (40 mg/kg) (n = 7); (5) LIN (40 mg/kg) (n = 7); and (6) CCl4 + silymarin (SIL) (200 mg/kg) (n = 5). LIN and SIL were dissolved in 0.5% CMC-Na solution. Mice were administered LIN or SIL (intragastric administration, i.g.) once per day and CCl4 (intraperitoneal injection, i.p.; mixed 1:3 in olive oil, 2 mL/kg) twice per week for 4 weeks. Mice in the vehicle control group received olive oil (i.p. twice a week, 4 weeks) and 0.5% CMC-Na (i.g. every day, 4 weeks). After treatment, the mice were sacrificed, and plasma and liver tissues were collected and further analysed.
Total RNA was extracted from liver tissues and LX-2 cells using the TRIzol reagent. cDNA was synthesised using a PrimeScript RT Master Mix kit. Real-time PCR was performed using SYBR Green premix according to the manufacturer’s instructions. Relative expression of target genes was normalised to actin, analysed by the delta-delta-CT method and given as a ratio compared with the vehicle control. Primer sequences used in this study are listed in Supplementary Material.
The formalin-fixed and de-paraffinized liver sections (5 μm) were incubated with 5% bovine serum albumin to minimise non-specific binding, and then incubated with α-SMA antibody (Santa Cruz, SC-53142) in a humidified chamber overnight at 4°C. After washing thrice with PBS, the sections were incubated with FITC-conjugated secondary antibody (SH0058; Skyhobio) for 1 h. After washing thrice, the liver sections were incubated with DAPI for 10 min. Images were captured using an inverted microscope (IX81; Olympus, Japan).
Paraffin-embedded liver sections were deparaffinized in xylene, rehydrated in a gradient of ethanol to distilled water, and then quenched by 3% hydrogen peroxide and then incubated with 5% bovine serum albumin, followed by incubation with vimentin antibody (ABclonal, A19607) at 4°C overnight, and further detected by using DAKO EnVision detection kits (Agilent Technologies Co., Ltd. K346811). The sections were counterstained with haematoxylin. Images were taken using an inverted microscope, and vimentin-positive cells were counted manually using Image-Pro Plus 6 in three random fields per sample (each group contained three samples).
Liver proteins were isolated by using a lysis buffer containing 50 mM Tris-HCl (pH7.5), 150 mM NaCl, 1 mM EDTA, 20 mM NaF, 0.5% NP-40, 10% glycerol, 1 mM phenylmethylsulphonyl fluoride, 10 μg/mL aprotinin, 10 μg/mL leupeptin, and 10 μg/mL pepstatin. The supernatants were collected after centrifugation at 3,000 g for 10 min at 4°C, and the protein concentration of each sample was determined and normalised to the same protein concentration. Protein samples were separated by sodium dodecyl sulphate-polyacrylamide gel electrophoresis and transferred onto polyvinylidene fluoride membranes. The membranes were incubated with the indicated primary and secondary antibodies, and the proteins in the membranes were visualised using a chemiluminescence kit. TGF-® antibody (CST, 3711), Smad 2/3 antibody (CST, 8685), p-Smad 2/3 antibody (CST, 8828), anti-α-SMA antibody (Santa Cruz, SC-53142), vimentin antibody (ABclonal, A19607), desmin antibody (ABclonal, A3736), GAPDH antibody (Beyotime, AF0006), and SHP2 antibody (CST, 3397). […]

mouse liver = assay: LIN alone in mice (toxicity); type: in vivo, C57BL/6 mice; settings: LIN alone 40 mg/kg i.g. once per day, 4 weeks
Description: C57BL/6 mice (20 ± 2 g) were obtained from Hangzhou Medical College Experimental Animal Center (Hangzhou, China). The animals were maintained under controlled temperature (22°C ± 1°C), humidity (50%), and light (12 h light/12 h dark). The animals were fed a standard laboratory diet and provided with free access to tap water. All animals received humane care according to institutional animal care guidelines approved by the Experimental Animal Ethical Committee of Hangzhou Medical College. […] After treatment, the mice were sacrificed, and plasma and liver tissues were collected and further analysed.
Serum was collected from blood samples after centrifugation at 860 × g for 15 min. Serum ALT (Nanjing Jiancheng Bioengineering Institute, C010-2-1) and AST (Nanjing Jiancheng Bioengineering Institute, C009-2-1) activities were measured using kits, according to the manufacturer’s instructions. Liver hydroxyproline content was determined using the alkaline hydrolysis method, as described in the kits. Serum levels of laminin (LN) were measured using ELISA kits, according to the manufacturer’s instructions (Shanghai YANJIN Biological Technology Co., LTD, F12019). […]

[2] = LIN 20 mg/kg, Western blot, p < 0.05

Which “fibrogenic gene expression (e.g., ACTA2, VIM, TGF-β, FN1, DES, COL1A1)” value (LX-2 cells; 10 μM LIN, 24 h, qPCR) does the source give for `C/C1=C\CCC2=C[C@@H](OC2=O)c2c(C)coc2C1` [LIN, linderalactone] here?
The value was “significantly decreased”.

And the “phosphorylation level of smad2/3” value (LX-2 cells; LIN 5 and 10 μM, Western blot)?
Its value is “significant reduced”.

What about the “liver α-SMA accumulation (immunofluorescence staining)” value ([1]; LIN) of the same molecule?
The value was “largely inhibited”.

What about the “protein expression of hepatic Des” value [1, 2] of the same molecule?
Its value is “significant reduction”.

What about the “protein expression of hepatic Vim” value [1, 2] of the same molecule?
The value was “significant reduction”.

What about the “protein expression of hepatic α-SMA” value [1, 2] of the same molecule?
The value was “significant reduction”.

And the “hepatic mRNA expression of Des” value ([1]; LIN 20 and 40 mg/kg)?
Its value is “significantly reduced”.

And the “hepatic mRNA expression of Vim” value ([1]; LIN 20 and 40 mg/kg)?
Its value is “significantly reduced”.

And the “hepatic mRNA expression of acta2” value ([1]; LIN 20 and 40 mg/kg)?
Its value is “significantly reduced”.

And the ALT/AST (mouse liver)?
Its ALT/AST is “no obvious alteration”.

What about the “pathological changes in mouse liver tissue” value (mouse liver) of the same molecule?
Its value is “no obvious alteration”.
